The test system of series [1] is synthesis of LTB4 in human whole blood. In words: LTB4 production inhibition assay in human whole blood (HWB). It is filed as cell-based. The settings on record: heparinized human whole blood, calcimycin 20 μM, 37° C. As for the experimental part: The compounds of the invention are additionally tested in a human whole blood (HWB) assay to determine their ability to inhibit the synthesis of LTB4 in a cellular system. Compounds are combined with heparinized human whole blood and incubated for 15 minutes at 37° C. Calcimycin (20 μM final, prepared in phosphate-buffered saline, pH 7.4) is then added and the mixture is incubated for another 30 minutes at 37° C. The samples are centrifuged for 5 min at low speed (1500×g) and the plasma layer is removed. Plasma LTB4 concentrations are then measured using an antibody-based homogenous time-resolved fluorescence method (CisBio, Bedford, Mass.). In general, the preferred potency range (IC50) of compounds in the HWB assay is between 10 nM to 10 μM, the more preferred potency range is 10 nM to 1 μM, and the most preferred potency range is 10 nM to 100 nM.

For series [2], the target named is human LTA4 hydrolase (Homo sapiens (Human), UniProt P09960). The experiment in a line: LTA4H Enzyme assay (cleavage of Arg-AMC, fluorescence). It is filed as biochemical. The settings on record: LTA4H Enzyme 1 nM, Arg-AMC substrate 50 μM, room temperature 1 h. How it is done: The compounds of the invention are assessed for the ability to interact with human LTA4 hydrolase in an enzymatic assay that measures the ability of the enzyme to cleave the peptide bond of arginyl-aminomethylcoumarin (Arg-AMC). LTA4H Enzyme (1 nM final), Arg-AMC substrate (50 μM final), and compound are combined in a reaction buffer (50 mM Tris-HCl (pH 7.5), 100 mM KCl, 0.5% bovine serum albumin) at room temperature for 1 h. The formation of product is assessed by measuring the fluorescence of aminomethylcoumarin product (excitation wavelength 380 nm/emission wavelength 460 nm).
human LTA4 hydrolase, sequence (P09960 whole entry): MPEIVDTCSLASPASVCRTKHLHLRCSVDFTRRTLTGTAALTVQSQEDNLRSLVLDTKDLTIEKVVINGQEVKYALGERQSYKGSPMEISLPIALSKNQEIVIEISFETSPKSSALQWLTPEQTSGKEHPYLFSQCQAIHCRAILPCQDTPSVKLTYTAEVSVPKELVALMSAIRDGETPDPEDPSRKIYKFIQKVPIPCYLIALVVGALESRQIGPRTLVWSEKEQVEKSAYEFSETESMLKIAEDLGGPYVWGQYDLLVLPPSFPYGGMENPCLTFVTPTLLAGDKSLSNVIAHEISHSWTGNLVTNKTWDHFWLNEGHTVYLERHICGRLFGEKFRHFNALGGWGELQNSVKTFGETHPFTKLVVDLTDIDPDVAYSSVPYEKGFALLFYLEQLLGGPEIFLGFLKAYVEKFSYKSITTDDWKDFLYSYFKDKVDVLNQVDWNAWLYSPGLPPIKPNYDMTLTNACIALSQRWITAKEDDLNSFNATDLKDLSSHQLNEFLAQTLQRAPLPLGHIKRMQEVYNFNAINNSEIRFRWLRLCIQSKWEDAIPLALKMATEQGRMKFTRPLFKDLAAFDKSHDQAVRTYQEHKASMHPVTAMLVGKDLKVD

Series [3] has as its system New Zealand white rabbit model of atherosclerosis. In words: New Zealand white rabbit model of atherosclerosis, combination with simvastatin. In kind it is in vivo. As for the experimental part:
In Vivo Studies Materials and Method: Rabbit Atherosclerosis Study Methods
The in-life portions of these studies were conducted at Covance Labs (Greenfield, Ind.). NZW rabbits were placed on a HF/HC diet manufactured by Research Diets Inc. (C30355) containing 0.25% cholesterol, 3% peanut oil, and 3% coconut oil for 3 weeks before randomization into treatment groups of 23 animals based on cholesterol levels and LTB4 production. Rabbits with cholesterol levels below 250 mg/dL at the start of treatment were removed from further analysis. The rabbits were fed 125 g of rabbit chow each day and both food consumption and body weights were measured throughout the study period. After 3 weeks the rabbits were either continued on this same diet for 10 weeks (control) or treated with Compound 200 in the same food formulation. Compound treated groups are group 1: compound 200 (3 mg/kg) and simvastatin (2.5 mg/kg); and group 2: compound 200 (15 mg/kg) and simvastatin (2.5 mg/kg). Another group of rabbits were treated with simvastatin alone at a dose of 2.5 mg/kg. During this time, plasma samples were taken for cholesterol, compound exposure, ALT and AST activity, and ex vivo LTB4 production at treatment week 0, 2, 4 and 10. Plasma samples for HDL and LDL levels were taken at week 2, 4 and 10. The animals were sacrificed after ten weeks of treatment, perfused with 10% formalin, and their descending aortas dissected out and placed in […] for transport to Boehringer Ingelheim Pharmaceuticals Inc. for processing. The aortas were pinned out onto the silicone surface inside a metal dish and stained with Sudan IV stain. Atherosclerosis development was determined by image analysis software after photographing the vessels. The percentage of the total vessel staining positive was determined
The mean value of each parameter was calculated for each different treatment group and compared to the control value. A one way ANOVA was used to compare treatment groups to the control group using a Dunnett's test for multiplicity of measures using Excell Stat software. As a pre-planned measurement the mean value of compound 200 treatment groups were individually compared to the simvastatin alone group by a Student's T test. Statistical significance was considered at the p<0.05 level.

The subject of series [4] is apoE-/- mouse model of atherosclerosis. In words: apoE-/- mouse model of atherosclerosis. In kind it is in vivo.
The mark [5] stands for this setting: in combination with simvastatin, compared to the simvastatin treated group.

`COCC(=O)NC1CCN(Cc2ccc([C@H]3COc4cccnc4O3)cc2)CC1` [Example 252, N-{1-[(S)-4-(2,3-Dihydro-[1,4]dioxino[2,3-b]pyridin-3-yl)-benzyl]-piperidin-4-yl}-2-methoxy-acetamide]: the 50% inhibitory concentration (IC50) (in general, the concentration at which inhibition is half-maximal) in series [1] came to 42 nM. `CNC(=O)C1CCN(Cc2ccc(C3COc4ccccc4O3)cc2)CC1` (racemic) [Example 25, 1-[4-(2,3-Dihydro-benzo[1,4]dioxin-2-yl)-benzyl]-piperidine-4-carboxylic acid methylamide] displayed an IC50 in series [2] of 0.76 nM. Same read-out and setting: next, `c1ccc2c(c1)OCC(c1ccc(CN3CCCC3)cc1)O2` (racemic) [Example 1, 1-[4-(2,3-dihydro-1,4-benzodioxin-2-yl)benzyl]pyrrolidine]: 0.38 nM; `CC(=O)N1CCCN(Cc2ccc(C3COc4ccccc4O3)cc2)CC1` (stereo not shown) [Example 31, 1-{4-[4-(2,3-dihydro-1,4-benzodioxin-2-yl)benzyl]-1,4-diazepan-1-yl}ethanone]: 1.54 nM; `O=C1CCCN1CC1CCN(Cc2ccc(C3COc4ccccc4O3)cc2)CC1` (stereo not shown) [Example 50, 1-({1-[4-(2,3-dihydro-1,4-benzodioxin-2-yl)benzyl]piperidin-4-yl}methyl)pyrrolidin-2-one]: 0.6 nM. Same read-out and setting: next, `FC1CCN(Cc2ccc(C3COc4ccccc4O3)cc2)CC1` (stereo not shown) [Example 5, 1-[4-(2,3-dihydro-1,4-benzodioxin-2-yl)benzyl]-4-fluoropiperidine]: 2.96 nM; `F[C@H]1CCN(Cc2ccc(C3COc4ccccc4O3)cc2)C1` (stereo partly drawn) [Example 115, (3S)-1-[4-(2,3-dihydro-1,4-benzodioxin-2-yl)benzyl]-3-fluoropyrrolidine]: 3.03 nM. Take `O=C(O)C1CCN(Cc2ccc([C@H]3COc4ccccc4O3)cc2)CC1` [Example 200, (S)-1-[4-(2,3-dihydro-benzo[1,4]dioxin-2-yl)-benzyl]-piperidine-4-carboxylic acid]: in series [3] (in combination with simvastatin 2.5 mg/kg vs simvastatin alone, 10 weeks chow dosing, p<0.05), the “reduction in plaque area within the descending aorta in addition to the reduction due to statin treatment” value came out at 35%. Besides, the “plaque area in the descending aorta of rabbits (FIG. 1)” value in series [3] (in combination with simvastatin compared to simvastatin treatment alone) was “further reduces plaque area”. Also, in series [3] (setting [5]), the “effect on body weight” value is “no significant effects”, the “effect on plasma cholesterol” value is given as “no significant effects” and the effect on triglycerides entry is on record as “no significant effects”. In addition, in series [4], the “plaque area in the descending aorta” value is “reduce plaque area”. `CN(CCc1ccccn1)Cc1ccc(C2COc3ccccc3O2)cc1` (stereo not shown) [Example 42, N-[4-(2,3-dihydro-1,4-benzodioxin-2-yl)benzyl]-N-methyl-2-(pyridin-2-yl)ethanamine] showed an IC50 in series [2] of 0.69 nM.

Regarding `COC1CCN(Cc2ccc(C3COc4ccccc4O3)cc2)C1` (stereo not shown) [Example 47, 1-[4-(2,3-dihydro-1,4-benzodioxin-2-yl)benzyl]-3-methoxypyrrolidine], the IC50 in series [2] amounted to 1.73 nM. On the same count and under the same terms, next, `NC(=O)NC1CCN(Cc2ccc(C3COc4ccccc4O3)cc2)CC1` (racemic) [Example 53, 1-{1-[4-(2,3-dihydro-1,4-benzodioxin-2-yl)benzyl]piperidin-4-yl}urea]: 0.42 nM; `NC(=O)C1CCCN(Cc2ccc(C3COc4ccccc4O3)cc2)C1` (stereo not shown) [Example 114, 1-[4-(2,3-dihydro-1,4-benzodioxin-2-yl)benzyl]piperidine-3-carboxamide]: 0.77 nM; `c1cncc(CNCc2ccc(C3COc4ccccc4O3)cc2)c1` (stereo not shown) [Example 54, 1-[4-(2,3-dihydro-1,4-benzodioxin-2-yl)phenyl]-N-(pyridin-3-ylmethyl)methanamine]: 5.93 nM.

In series [2], `CS(=O)(=O)NC1CCN(Cc2ccc(C3COc4ccccc4O3)cc2)CC1` (stereo not drawn) [Example 48, N-{l-[4-(2,3-dihydro-1,4-benzodioxin-2-yl)benzyl]piperidin-4-yl}methanesulfonamide] displayed an IC50 of 0.16 nM. Still for that read-out and setting: next, `c1ccc2c(c1)OCC(c1ccc(CNC3CCCC3)cc1)O2` (stereo not shown) [Example 41, N-[4-(2,3-dihydro-1,4-benzodioxin-2-yl)benzyl]cyclopentanamine]: 3.71 nM; `COCCN(C)Cc1ccc(C2COc3ccccc3O2)cc1` (stereo not shown) [Example 33, N-[4-(2,3-dihydro-1,4-benzodioxin-2-yl)benzyl]-2-methoxy-N-methylethanamine]: 3.19 nM. The same measure, in the same setting: next, `CN(C)C(=O)CC1CCN(Cc2ccc(C3COc4ccccc4O3)cc2)CC1` (stereo not shown) [Example 38, 2-{1-[4-(2,3-dihydro-1,4-benzodioxin-2-yl)benzyl]piperidin-4-yl}-N,N-dimethylacetamide]: 1.14 nM.

The record behind these values is US9662339B2, “Benzodioxane inhibitors of leukotriene production for combination therapy” (Boehringer Ingelheim International GmbH, priority 2012, dated 2017).
